Laboratory results: patent US7109380B2, “Cyclopentenedione antifungal compounds and methods for their use” (The University of Mississippi, priority 2004, dated 2006)
≈ marks a conversion by molar mass, not a printed value. Like-named read-outs stand apart in the source and are kept apart here.

Tests used:
[1] = test system: Azole-susceptible and Azole-resistant Candida albicans Strains; assay: Antifungal activity against azole-susceptible and azole-resistant patient isolates; format: cell-based; conditions: for IC50 / IC80: Candida albicans; for Activity against fluconazole-resistant C. albicans strains (in words): isolates from patients during fluconazole therapy
Procedure: Antimicrobial Assay. Susceptibility testing is performed using a modified version of the National Committee for Clinical Laboratory Standards methods. M intracelluare is tested using a modified method of Franzblau, et al. Seventy-two to 96 h prior to the assay, the M intracellulare subculture is prepared by resuspending cells from the surface of the slant in Middlebrook 7H9 broth with OADC enrichment and incubating at 37° C. and 10% CO2. On the day of the assay, prepared samples (dissolved in DMSO) are serially-diluted using 20%/0.9% DMSO/saline and transferred in duplicate to 96 well flat bottom microplates. Candida spp. and C. neoformans inocula are prepared by picking 1–3 colonies from agar plates and resuspending in ˜5 mL 0.9% sterile saline. The absorption of 10011 of the saline suspensions and the M. intracellulare subculture at 630 nm using the EL-340 Biokinetics Reader (Bio-Tek Instruments, Vermont) is compared either the 0.5 McFarland standard of 0.03 (Mi) or standard curves. The microorganisms are diluted in broth [RPMI 1640/2% dextrose/MOPS at pH 7.3 (Cellgro) for Candida spp., Sabouraud Dextrose for C. neoformans, and 5% Alamar Blue™(BioSource International, Camarillo, Calif.) in Middlebrook 7H9 broth with OADC enrichment, pH=7.3 for M. intracellulare to afford final target inocula of: Candida spp.: 1.0×10^4, C. neoformans: 1.0×10^5, and M. intracellulare: 2.0×10^6 after addition to the samples. The microbial inocula are added to the samples to achieve a final volume of 200 μl. Growth (saline only), solvent and blank (media only) controls are included on each test plate. Drug controls [Ciprofloxacin (ICN Biomedicals, Ohio) for bacteria and Amphotericin B (ICN Biomedicals, Ohio) for fungi] are included in each assay. All organisms are read at either 630 nm using the EL-340 Biokinetics Reader (Bio-Tek Instruments, Vermont) or 544ex/590em, (M. intracellulare) using the Polarstar Galaxy Plate Reader (BMG LabTechnologies, Germany) prior to and after incubation: Candida spp. at 37° C. for 18–24 h, C. neoformans at 30° C. for 72 h, and M. intracellulare at 37° C. and 10% CO2 for 72 h. Percent growth is calculated and plotted versus test concentration to afford the IC50 (sample concentration that affords 50% growth of the organism) and the minimum inhibitory concentration (MIC) and minimum fungicidal or bactericidal concentrations (MFC/MBCs). The MIC is defined as the lowest test concentration that allows no detectable growth (for M. intracellulare no color change from blue to pink). Minimum fungicidal or bactericidal concentrations are determined by removing 5 μl from each clear (or blue) well, transferring to agar and incubating as previously mentioned. The MFC/MBC is defined as the lowest test concentration that kills 100% of the organism (allows no growth on agar).
The bioassay method is a modified version of the National Committee for Clinical Laboratory Standards methods, and is same as the one described in example 8 by which the biological data of compounds 1 and 2 (Tables 1 and 2) were obtained, except that the pH of the culture media for Candida spp. was changed from 7.3 to 4.5.

[2] = test system: C. glabrata ATCC 90030; assay: In vitro antimicrobial assay (modified NCCLS), Candida media pH 4.5; format: cell-based, Candida glabrata; conditions: Nakaseomyces glabratus
[3] = test system: Cryptococcus neoformans ATCC 90113; assay: In vitro antifungal susceptibility testing (modified NCCLS method); format: cell-based; conditions: for MFC / MIC: ATCC90113
[4] = test system: Candida albicans ATCC 90028; assay: In vitro antifungal susceptibility testing (modified NCCLS method), media pH 7.3; format: cell-based
[5] = test system: C. krusei ATCC 6258; assay: In vitro antimicrobial assay (modified NCCLS), Candida media pH 4.5; format: cell-based, Candida krusei; conditions: Pichia kudriavzevii, ATCC6258, pH 4.5, read-out: IC50 (50% inhibitory concentration)
[6] = Isolate 1, azole-susceptible strain (first listing, r6)
[7] = Isolate 1, azole-susceptible strain (second listing, r10)
[8] = Isolate 2, azole-resistant strain
[9] = Isolate 5, azole-resistant strain
[10] = Isolate 8, azole-resistant strain
[11] = Isolate 17, azole-resistant strain

Question: How did the IC50 [1, 6] turn out when `COC(/C=C/c1ccccc1)=C1\C(=O)C=C(C)C1=O` [Compound 1, coruscanone A] was run?
Answer: 0.6 µg/mL (≈ 2.36 µM)

Question: What about the IC80 [1, 6] of the same molecule?
Answer: 1 µg/mL (≈ 3.93 µM)

Question: And the IC50 [1, 7]?
Answer: 0.45 µg/mL (≈ 1.77 µM)

Question: What about the IC80 [1, 7] of the same molecule?
Answer: 0.6 µg/mL (≈ 2.36 µM)

Question: What about the IC50 [1, 8] of the same molecule?
Answer: 0.9 µg/mL (≈ 3.54 µM)

Question: What about the IC80 [1, 8] of the same molecule?
Answer: 1 µg/mL (≈ 3.93 µM)

Question: And the IC50 [1, 9]?
Answer: 0.4 µg/mL (≈ 1.57 µM)

Question: What about the IC80 [1, 9] of the same molecule?
Answer: 0.6 µg/mL (≈ 2.36 µM)

Question: And the IC50 [1, 10]?
Answer: 0.9 µg/mL (≈ 3.54 µM)

Question: What about the IC80 [1, 10] of the same molecule?
Answer: 1 µg/mL (≈ 3.93 µM)

Question: And the IC50 [1, 11]?
Answer: 0.3 µg/mL (≈ 1.18 µM)

Question: And the IC80 [1, 11]?
Answer: 0.9 µg/mL (≈ 3.54 µM)

Question: And the IC95 [1, 6]?
Answer: 1.50 µg/mL (≈ 5.9 µM)

Question: What about the IC95 [1, 7] of the same molecule?
Answer: 0.75 µg/mL (≈ 2.95 µM)

Question: And the IC95 [1, 8]?
Answer: 1.50 µg/mL (≈ 5.9 µM)

Question: What about the IC95 [1, 9] of the same molecule?
Answer: 0.70 µg/mL (≈ 2.75 µM)

Question: And the IC95 [1, 10]?
Answer: 1.50 µg/mL (≈ 5.9 µM)

Question: What about the IC95 ([1]; Isolate 17, azole-resistant strain, highest test concentration 100 μg/mL) of the same molecule?
Answer: 1.50 µg/mL (≈ 5.9 µM)

Question: What about the “Activity against fluconazole-resistant C. albicans strains (in words)” value [1] of the same molecule?
Answer: retains equivalent activity relative to the susceptible strains

Question: And the “Activity against fluconazole-resistant C. albicans strains (in words)” value ([1]; listed as coruscanone A)?
Answer: inhibits

Question: What about the IC50 ([2]; ATCC90030, pH 4.5, read-out: IC50 (50% inhibitory concentration)) of the same molecule?
Answer: 2.5 µg/mL (≈ 9.83 µM)

Question: And the MIC ([2]; ATCC90030, C. glabrata ATCC 90030, pH 4.5, read-out: MIC)?
Answer: 5 µg/mL (≈ 19.7 µM)

Question: And the MFC ([3]; Cryptococcus neoformans ATCC 90113, Table 1, read-out: MFC (Minimum Fungicidal Concentration))?
Answer: 6.25 µg/mL (≈ 24.6 µM)

Question: And the MIC ([3]; Cryptococcus neoformans ATCC 90113, Table 1, read-out: MIC (Minimum Inhibitory Concentration))?
Answer: 6.25 µg/mL (≈ 24.6 µM)

Question: And the IC50 ([3]; Cryptococcus neoformans, ATCC90113, read-out: IC50 (50% inhibitory concentration))?
Answer: 1.5 µg/mL (≈ 5.9 µM)

Question: What about the MFC ([3]; Cryptococcus neoformans, Cr. neoformans ATCC 90113, Table 3, read-out: MFC) of the same molecule?
Answer: 2.5 µg/mL (≈ 9.83 µM)

Question: And the MIC ([3]; Cryptococcus neoformans, Cr. neoformans ATCC 90113, Table 3, read-out: MIC)?
Answer: 2.5 µg/mL (≈ 9.83 µM)

Question: And the “Antifungal activity against C. albicans (in words)” value [4]?
Answer: potent activity

Question: And the MFC ([4]; ATCC90028, Candida albicans ATCC 90028, Table 1, read-out: MFC (Minimum Fungicidal Concentration))?
Answer: 1.56 µg/mL (≈ 6.13 µM)

Question: And the MIC ([4]; ATCC90028, Candida albicans ATCC 90028, Table 1, read-out: MIC (Minimum Inhibitory Concentration))?
Answer: 0.78 µg/mL (≈ 3.07 µM)

Question: And the “Antifungal activity against C. albicans (in words)” value ([4]; listed as coruscanone A)?
Answer: comparable to or stronger than those of positive control drugs

Question: What about the IC50 [5] of the same molecule?
Answer: 2.5 µg/mL (≈ 9.83 µM)
